Earlier results in publication PMC3922827 (Journal of the American Chemical Society, 2013).
Where two headings read alike, the source gives them in different places. No end group written: not given here. *: point of attachment. For = O=C*

Conditions: graded or all-or-none class

Substance | type of dye release from lipid vesicles | type of dye release from lipid vesicles (LUVs)
AGWLLGKINLKALAALAKKIL-NH2 [TP10W] | graded | –
For-MAQKIISTIGKLVKWIIKTVNKFTKK [DL-1] | – | all-or-none
